This data set in a line: Solution stability of ^90Y-B at −78° C., RCP by radio-HPLC. Conditions: ^90Y-B prepared with GA; for RCP (%) t = 0 / RCP (%) t = 3 days / RCP (%) t = 7 days: degassed, second stabilizer (20 mg AA, 20 mg DSA, 10 mg 2,3,4-THBA, 10 mg HABA) added post-labeling; for RCP (%) change: second stabilizer added post-labeling, t = 0 to 7 days. It counts as physicochemical. The method, then:
The integrity of a radiopharmaceutical is measured by the radiochemical purity (RCP) of the radiolabeled compound using ITLC or more preferably HPLC. The advantage of using HPLC is that radio-impurities caused by radiolytic degradation can be separated from the radiopharmaceutical under optimized chromatographic conditions. […] The radiopharmaceutical compositions of this invention are effective in maintaining the long-term stability of samples that have been frozen, thawed, and re-tested periodically for 7 days.
The initial RCP of a radiopharmaceutical is largely dependent on radiolabeling conditions such as pH, heating temperature and time. Once a radiopharmaceutical is prepared in high yield, the stability of the radiopharmaceutical composition is measured by the` RCP change of the radiopharmaceutical over a certain period of time. For comparison purposes, sodium gentisate or sodium ascorbate was often used as the reference since they have been used in various radiopharmaceutical formulations.
HPLC method 2 used a HP-1100 HPLC system with a UV/visible detector (λ=220 nm), an IN-US radio-detector, and a Zorbax C18 column (4.6 mm×250 mm, 80 Å pore size). The flow rate was 1 mL/min with a gradient mobile phase starting from 92% solvent A (0.025 M ammonium acetate buffer, pH 6.8) and 8% solvent B (acetonitrile) at 0 min to 90% solvent A and 10% solvent B at 18 min, followed by an isocratic wash using 40% of solvent A and 60% solvent B from 19 to 25 min.
The ITLC method used Gelman Sciences silica-gel ITLC paper strips and 1:1 mixture of acetone and saline as eluant. By this method, the radiolabeled compounds migrate to the solvent front while [^90Y]/^177Lu]colloid and [^90Y]/^177Lu]acetate remain at the origin. […]
The 0.5 M ammonium acetate buffer (pH 8.0) was first degassed under vacuum for 1-2 min. COMPOUND B and gentisic acid (sodium salt, GA) were dissolved in the degassed buffer to give a concentration of 100 μg/mL for COMPOUND B and 20 mg/mL for GA. The resulting solution was immediately degassed under vacuum for another 1-2 min. To a clean sealed 5 mL vial was added 1.0 mL of the degassed 0.5 M ammonium acetate buffer (pH 8.0) containing 100 μg COMPOUND B and 10 mg GA. The solution was degassed again under vacuum. Upon addition of ˜20 μL of ^90YCl3 solution (˜20 mCi) in 0.05 N HCl, the reaction mixture was heated at 100° C. for 5 min. After cooling to room temperature, a sample of the resulting solution was diluted 20-fold with saline containing gentisate (10 mg/mL), and was then analyzed by HPLC (Method 2, injection volume=1-2 μL) and ITLC. […] To the solution above was added 0.5 mL of sodium ascorbate solution (40 mg/mL in 0.5 M ammonium acetate buffer, pH=7.4). The resulting mixture was then kept in a dry-ice box (−78° C.) for 7 days. Samples were analyzed at t=0, 3 and 7 days.
The 0.5 M ammonium acetate buffer (pH 8.0) was first degassed under vacuum for 1-2 min. COMPOUND B and gentisic acid (sodium salt, GA) were dissolved in the degassed buffer to give a concentration of 100 μg/mL for COMPOUND B and 20 mg/mL for GA. The resulting solution was immediately degassed under vacuum for another 1-2 min. To a clean sealed 5 mL vial was added 1.0 mL of the degassed 0.5 M ammonium acetate buffer (pH 8.0) containing 100 μg COMPOUND B and 10 mg GA. The solution was degassed again under vacuum. Upon addition of ˜20 μL of ^90YCl3 solution (˜20 mCi) in 0.05 N HCl, the reaction mixture was heated at 100° C. for 5 min. After cooling to room temperature, a sample of the resulting solution was diluted 20-fold with saline containing gentisate (10 mg/mL), and was then analyzed by HPLC (Method 2, injection volume=1-2 μL) and ITLC. […] To the solution above was added 0.5 mL of 2,3,4-trihydroxybenzoic acid solution (20 mg/mL in 0.5 M ammonium acetate buffer, pH=6.5). The resulting mixture was then kept in a dry-ice box (−78° C.) for 7 days. Samples were analyzed at t=0, 3 and 7 days. […]

On to 2,4-disulfonatobenzeneamine [DSA], for which the “RCP (%) t = 0” value is recorded as 94.4%, the “RCP (%) t = 3 days” value turned out to be 94.8%, the “RCP (%) t = 7 days” value is 94.5% and the “RCP (%) change” value is 0.1%.

Consider `O=C(O)c1ccc(O)c(O)c1O` [2,3,4-THBA, 2,3,4-trihydroxybenzoic acid], for which the “RCP (%) t = 0” value was 94.2%, the “RCP (%) t = 3 days” value was determined as 93.6%, the “RCP (%) t = 7 days” value amounted to 93.9% and the “RCP (%) change” value is recorded as 0.3%.
